Measurements taken from patent publication US20230398140A1, “OCULAR-TENSION-INCREASING AGENT CAPABLE OF BEING DEPRIVED OF DRUG ACTIVITY BY TEMPERATURE CONTROL” (UNIVERSITY OF YAMANASHI, priority 2020, published 2023).

Tested on: White house rabbits
Settings: rabbit, in vivo
Procedure: White house rabbits (2 to 3.5 kg) were positioned with a positioner and ocular tension was measured by a handy tonometer (Icare TONOVET Plus, M.E, Technica) while they were kept awake, and then anesthetized with ketamine and xylazine (ketamine hydrochloride 60 mg/kg; Sankyo, Tokyo, Japan and xylazine 10 mg/kg; Bayer, Munich, Germany). Ocular tension was again measured, and eyeballs were observed by a microscope under anesthesia. Thereafter, 100 μL of 1 wt % POxMix was injected into the anterior chamber of just one of the eyes of each rabbit. Microscopic observation and tonometry were carried out immediately after injection, 30 minutes and 24 hours after anesthesia.

## poly(2-propyl-2-oxazoline) [POx]
  cloudiness of eyeball after 24 hours: deposited on the iris and lens surface with the passage of time and remained as a white sediment
  cloudiness of eyeball immediately after administration: became cloudy
